According to PubChem BioAssay AID1259407 (Chemical Carcinogenesis Research Information System (CCRIS), 2018):
The source made the active and inactive calls. The rule behind the calls is not given here.

Tested on: CCRIS mutagenicity, Ames/micronucleus/aberration tests
Assay: CCRIS mutagenicity studies
[1] = Test System: AMES SALMONELLA TYPHIMURIUM, Strain/Indicator: TA98, Metabolic Activation: NONE, Method: STANDARD PLATE
[2] = Test System: AMES SALMONELLA TYPHIMURIUM, Strain/Indicator: TA100, Metabolic Activation: NONE, Method: STANDARD PLATE
[3] = Test System: AMES SALMONELLA TYPHIMURIUM, Strain/Indicator: TA98, Metabolic Activation: S-9, Method: STANDARD PLATE
[4] = Test System: AMES SALMONELLA TYPHIMURIUM, Strain/Indicator: TA100, Metabolic Activation: S-9, Method: STANDARD PLATE

Measured: mutagenic call

COc1cc(-c2ccc(N/N=C3\C=Cc4c(S(=O)(=O)O)cc(S(=O)(=O)O)c(N)c4C3=O)c(OC)c2)ccc1N/N=C1/C=Cc2c(S(=O)(=O)O)cc(S(=O)(=O)O)c(N)c2C1=O
active: Test System: AMES SALMONELLA TYPHIMURIUM, Strain/Indicator: TA98, Metabolic Activation: HAMSTER, LIVER, S-9, Method: PREINCUBATION (PRIVAL METHOD) active; positive
inactive: Test System: Ames Salmonella typhimurium, Strain/Indicator: TA98, Metabolic Activation: Rat, Liver, S-9, Sodium phenobarbitone, Method: Preincubation inactive; negative, test conducted under both aerobic and anaerobic conditions. | Test System: Ames Salmonella typhimurium, Strain/Indicator: TA1538, Metabolic Activation: Rat, Liver, S-9, Sodium phenobarbitone, Method: Preincubation inactive; negative, test conducted under both aerobic and anaerobic conditions.

CC(=O)OC1Cc2ccc3ccc4cccc5cc1c2c3c45 (centres undefined)
active: [1] active; positive | [2] active; positive

CCCN(C)N=O
active: Test System: CHINESE HAMSTER V-79, Strain/Indicator: V-79/8-AZAGUANINE, Metabolic Activation: RAT, LIVER, S-15, PHENOBARBITAL, Method: STANDARD PLATE active; positive | Test System: CHINESE HAMSTER V-79, Strain/Indicator: V-79/OUABAIN, Metabolic Activation: HAMSTER, HEPATOCYTES, Method: CELL-MEDIATED active; positive

CC(C)Nc1ccc(Nc2ccccc2)cc1
inactive: Test System: AMES SALMONELLA TYPHIMURIUM, Strain/Indicator: TA98, Metabolic Activation: HAMSTER, LIVER, S-9, AROCLOR 1254 (10%), Method: PREINCUBATION inactive; negative | Test System: AMES SALMONELLA TYPHIMURIUM, Strain/Indicator: TA98, Metabolic Activation: NONE, Method: PREINCUBATION inactive; negative | [1] inactive; negative | Test System: AMES SALMONELLA TYPHIMURIUM, Strain/Indicator: TA98, Metabolic Activation: RAT LIVER S-9, PHENOBARBITAL AND BETA-NAPHTHOFLAVONE, Method: PREINCUBATION inactive; negative | Test System: AMES SALMONELLA TYPHIMURIUM, Strain/Indicator: TA98, Metabolic Activation: RAT, LIVER, S-9, AROCLOR 1254 (10%), Method: PREINCUBATION inactive; negative | [3] inactive; negative | Test System: AMES SALMONELLA TYPHIMURIUM, Strain/Indicator: TA100, Metabolic Activation: HAMSTER, LIVER, S-9, AROCLOR 1254 (10%), Method: PREINCUBATION inactive; negative | Test System: AMES SALMONELLA TYPHIMURIUM, Strain/Indicator: TA100, Metabolic Activation: NONE, Method: PREINCUBATION inactive; negative | [2] inactive; negative | Test System: AMES SALMONELLA TYPHIMURIUM, Strain/Indicator: TA100, Metabolic Activation: RAT LIVER S-9, PHENOBARBITAL AND BETA-NAPHTHOFLAVONE, Method: PREINCUBATION inactive; negative | Test System: AMES SALMONELLA TYPHIMURIUM, Strain/Indicator: TA100, Metabolic Activation: RAT, LIVER, S-9, AROCLOR 1254 (10%), Method: PREINCUBATION inactive; negative | [4] inactive; negative | Test System: AMES SALMONELLA TYPHIMURIUM, Strain/Indicator: TA1535, Metabolic Activation: HAMSTER, LIVER, S-9, AROCLOR 1254 (10%), Method: PREINCUBATION inactive; negative | Test System: AMES SALMONELLA TYPHIMURIUM, Strain/Indicator: TA1535, Metabolic Activation: NONE, Method: PREINCUBATION inactive; negative | Test System: AMES SALMONELLA TYPHIMURIUM, Strain/Indicator: TA1535, Metabolic Activation: RAT LIVER S-9, PHENOBARBITAL AND BETA-NAPHTHOFLAVONE, Method: PREINCUBATION inactive; negative | Test System: AMES SALMONELLA TYPHIMURIUM, Strain/Indicator: TA1535, Metabolic Activation: RAT, LIVER, S-9, AROCLOR 1254 (10%), Method: PREINCUBATION inactive; negative | Test System: AMES SALMONELLA TYPHIMURIUM, Strain/Indicator: TA1537, Metabolic Activation: HAMSTER, LIVER, S-9, AROCLOR 1254 (10%), Method: PREINCUBATION inactive; negative | Test System: AMES SALMONELLA TYPHIMURIUM, Strain/Indicator: TA1537, Metabolic Activation: NONE, Method: PREINCUBATION inactive; negative | Test System: AMES SALMONELLA TYPHIMURIUM, Strain/Indicator: TA1537, Metabolic Activation: RAT LIVER S-9, PHENOBARBITAL AND BETA-NAPHTHOFLAVONE, Method: PREINCUBATION inactive; negative | Test System: AMES SALMONELLA TYPHIMURIUM, Strain/Indicator: TA1537, Metabolic Activation: RAT, LIVER, S-9, AROCLOR 1254 (10%), Method: PREINCUBATION inactive; negative | Test System: AMES SALMONELLA TYPHIMURIUM, Strain/Indicator: TA1538, Metabolic Activation: NONE, Method: PREINCUBATION inactive; negative | Test System: AMES SALMONELLA TYPHIMURIUM, Strain/Indicator: TA1538, Metabolic Activation: RAT LIVER S-9, PHENOBARBITAL AND BETA-NAPHTHOFLAVONE, Method: PREINCUBATION inactive; negative | Test System: E.COLI, Strain/Indicator: WP2UVRA, Metabolic Activation: NONE, Method: PREINCUBATION inactive; negative | Test System: E.COLI, Strain/Indicator: WP2UVRA, Metabolic Activation: RAT LIVER S-9, PHENOBARBITAL AND BETA-NAPHTHOFLAVONE, Method: PREINCUBATION inactive; negative

c1ccc2sncc2c1
inactive: [1] inactive; negative | [3] inactive; negative | [2] inactive; negative | [4] inactive; negative | Test System: AMES SALMONELLA TYPHIMURIUM, Strain/Indicator: TA1535, Metabolic Activation: NONE, Method: STANDARD PLATE inactive; negative | Test System: AMES SALMONELLA TYPHIMURIUM, Strain/Indicator: TA1535, Metabolic Activation: S-9, Method: STANDARD PLATE inactive; negative | Test System: AMES SALMONELLA TYPHIMURIUM, Strain/Indicator: TA1537, Metabolic Activation: NONE, Method: STANDARD PLATE inactive; negative | Test System: AMES SALMONELLA TYPHIMURIUM, Strain/Indicator: TA1537, Metabolic Activation: S-9, Method: STANDARD PLATE inactive; negative
